Reference: PubChem BioAssay AID248 (DTP/NCI, 2004)
Values joined by “and” are separate entries in the source; they are usually repeats but may differ in a detail not shown here. Equal values may be shown once. Inconclusive results and toxic doses are left out. Cut-off read from the data, not from the text of the source: active = T/C of 150% or more; inactive = T/C below 125%.

Tested on: L1210 leukemia ip in BDF1 mice, survival T/C
Assay: NCI In Vivo Anticancer Drug Screen. Data for tumor model L1210 Leukemia (intraperitoneal) in B6D2F1 (BDF1) mice
Conditions: higher = longer survival
Procedure, shortened: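 Tumor was transplanted into mice, which were then dosed with test compound or vehicle alone. Survival was recorded for each group, and the treated figure was expressed relative to the control figure.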

[1] = endpoint: mean survival time, dose: 100.0 mg/kg/injection, schedule: Q01DX001 (ip), vehicle: saline
[2] = endpoint: mean survival time, dose: 200.0 mg/kg/injection, schedule: Q01DX001 (ip), vehicle: saline
[3] = endpoint: mean survival time, dose: 100.0 mg/kg/injection, schedule: Q01DX009 (ip), vehicle: Klucel (hydroxypropylcellulose) (HPC)
[4] = endpoint: mean survival time, dose: 200.0 mg/kg/injection, schedule: Q01DX009 (ip), vehicle: Klucel (hydroxypropylcellulose) (HPC)
[5] = endpoint: mean survival time, dose: 400.0 mg/kg/injection, schedule: Q04DX002 (ip), vehicle: saline with Tween-80
[6] = endpoint: mean survival time, dose: 100.0 mg/kg/injection, schedule: Q04DX002 (ip), vehicle: Klucel (hydroxypropylcellulose) (HPC)
[7] = endpoint: mean survival time, dose: 200.0 mg/kg/injection, schedule: Q04DX002 (ip), vehicle: Klucel (hydroxypropylcellulose) (HPC)
[8] = endpoint: mean survival time, dose: 400.0 mg/kg/injection, schedule: Q04DX002 (ip), vehicle: Klucel (hydroxypropylcellulose) (HPC)
[9] = endpoint: mean survival time, dose: 100.0 mg/kg/injection, schedule: Q04DX002 (ip), vehicle: saline
[10] = endpoint: mean survival time, dose: 200.0 mg/kg/injection, schedule: Q04DX002 (ip), vehicle: saline
[11] = endpoint: mean survival time, dose: 100.0 mg/kg/injection, schedule: Q04DX003 (ip), vehicle: saline with Tween-80
[12] = endpoint: mean survival time, dose: 200.0 mg/kg/injection, schedule: Q04DX003 (ip), vehicle: saline with Tween-80
[13] = endpoint: mean survival time, dose: 400.0 mg/kg/injection, schedule: Q04DX003 (ip), vehicle: saline with Tween-80
[14] = endpoint: mean survival time, dose: 12.5 mg/kg/injection, schedule: Q01DX009 (ip), vehicle: saline

Measured: T/C

CN(C)c1ccc(/C=C/c2ccnc3ccccc23)cc1
inactive: endpoint: mean survival time, dose: 4.0 mg/kg/injection, schedule: Q01DX Z (ip), vehicle: saline 103 % of control | endpoint: mean survival time, dose: 5.0 mg/kg/injection, schedule: Q01DX010 (ip), vehicle: saline 94 % of control and 100 % of control | endpoint: mean survival time, dose: 6.0 mg/kg/injection, schedule: Q01DX Z (ip), vehicle: saline 103 % of control | endpoint: mean survival time, dose: 8.0 mg/kg/injection, schedule: Q01DX Z (ip), vehicle: saline 103 % of control | endpoint: mean survival time, dose: 10.0 mg/kg/injection, schedule: Q01DX009 (ip), vehicle: saline 93 % of control and 101 % of control | endpoint: mean survival time, dose: 10.0 mg/kg/injection, schedule: Q01DX010 (ip), vehicle: saline 98 % of control | endpoint: mean survival time, dose: 10.0 mg/kg/injection, schedule: Q01DX Z (ip), vehicle: saline 97 % of control | endpoint: mean survival time, dose: 20.0 mg/kg/injection, schedule: Q01DX009 (ip), vehicle: saline 95 % of control and 97 % of control | endpoint: mean survival time, dose: 20.0 mg/kg/injection, schedule: Q01DX010 (ip), vehicle: saline 100 % of control and 91 % of control | endpoint: mean survival time, dose: 40.0 mg/kg/injection, schedule: Q01DX009 (ip), vehicle: saline 95 % of control and 88 % of control | endpoint: mean survival time, dose: 40.0 mg/kg/injection, schedule: Q01DX010 (ip), vehicle: saline 93 % of control and 100 % of control | endpoint: mean survival time, dose: 50.0 mg/kg/injection, schedule: Q01DX001 (ip), vehicle: saline 101 % of control | endpoint: mean survival time, dose: 64.0 mg/kg/injection, schedule: Q01DX010 (iv), vehicle: saline 108 % of control | endpoint: mean survival time, dose: 80.0 mg/kg/injection, schedule: Q01DX009 (ip), vehicle: saline 101 % of control | endpoint: mean survival time, dose: 100.0 mg/kg/injection, schedule: Q01DX001 (ip), vehicle: carboxymethylcellulose (CMC) 103 % of control | [1] 97 % of control | endpoint: mean survival time, dose: 128.0 mg/kg/injection, schedule: Q01DX010 (iv), vehicle: saline 87 % of control | endpoint: mean survival time, dose: 200.0 mg/kg/injection, schedule: Q01DX001 (ip), vehicle: carboxymethylcellulose (CMC) 109 % of control | [2] 103 % of control | endpoint: mean survival time, dose: 256.0 mg/kg/injection, schedule: Q01DX010 (iv), vehicle: saline 92 % of control | endpoint: mean survival time, dose: 400.0 mg/kg/injection, schedule: Q01DX001 (ip), vehicle: carboxymethylcellulose (CMC) 106 % of control | endpoint: mean survival time, dose: 800.0 mg/kg/injection, schedule: Q01DX001 (ip), vehicle: carboxymethylcellulose (CMC) 97 % of control | endpoint: median survival time, dose: 10.0 mg/kg/injection, schedule: Q01DX009 (ip), vehicle: saline 100 % of control and 87 % of control | endpoint: median survival time, dose: 20.0 mg/kg/injection, schedule: Q01DX009 (ip), vehicle: saline 100 % of control and 87 % of control | endpoint: median survival time, dose: 40.0 mg/kg/injection, schedule: Q01DX009 (ip), vehicle: saline 93 % of control and 105 % of control | endpoint: median survival time, dose: 80.0 mg/kg/injection, schedule: Q01DX009 (ip), vehicle: saline 100 % of control and 87 % of control

COc1c(O)ccc2c1-c1c3c(cc4c1C(C2)NCC4)OCO3 (stereo not drawn)
inactive: [1] 102 % of control

Cc1ccc(S(=O)(=O)N2CCCC2CO)cc1 (stereo not drawn)
inactive: endpoint: mean survival time, dose: 50.0 mg/kg/injection, schedule: Q01DX009 (ip), vehicle: Klucel (hydroxypropylcellulose) (HPC) 97 % of control | [3] 101 % of control | [4] 101 % of control

[I][Hg][CH2]C1COCC([CH2][Hg][I])O1.[I][Hg][CH2]C1COCC([CH2][Hg][I])O1 (stereo not drawn)
inactive: endpoint: mean survival time, dose: 20.0 mg/kg/injection, schedule: Q04DX003 (ip), vehicle: carboxymethylcellulose (CMC) 100 % of control | endpoint: mean survival time, dose: 40.0 mg/kg/injection, schedule: Q01DX001 (ip), vehicle: carboxymethylcellulose (CMC) 91 % of control | endpoint: mean survival time, dose: 40.0 mg/kg/injection, schedule: Q04DX003 (ip), vehicle: carboxymethylcellulose (CMC) 105 % of control | endpoint: mean survival time, dose: 80.0 mg/kg/injection, schedule: Q01DX001 (ip), vehicle: carboxymethylcellulose (CMC) 93 % of control

COC(=O)CC(CC(=O)OC)c1ccc(OC)c([N+](=O)[O-])c1
inactive: endpoint: mean survival time, dose: 25.6 mg/kg/injection, schedule: Q04DX002 (ip), vehicle: saline with Tween-80 101 % of control | endpoint: mean survival time, dose: 64.0 mg/kg/injection, schedule: Q04DX002 (ip), vehicle: saline with Tween-80 101 % of control | endpoint: mean survival time, dose: 160.0 mg/kg/injection, schedule: Q04DX002 (ip), vehicle: saline with Tween-80 97 % of control | [5] 93 % of control

Cc1ccc(I)cc1NCN1C(=O)c2ccccc2C1=O
inactive: endpoint: mean survival time, dose: 100.0 mg/kg/injection, schedule: Q04DX002 (ip), vehicle: saline with Tween-80 100 % of control | endpoint: mean survival time, dose: 200.0 mg/kg/injection, schedule: Q04DX002 (ip), vehicle: saline with Tween-80 107 % of control | [5] 104 % of control

CN(C)c1ccc2c(c1)Cc1cc(NC(=O)/C=C/C(=O)O)ccc1-2
inactive: endpoint: mean survival time, dose: 100.0 mg/kg/injection, schedule: Q04DX003 (ip), vehicle: saline 112 % of control | endpoint: mean survival time, dose: 200.0 mg/kg/injection, schedule: Q04DX003 (ip), vehicle: saline 93 % of control | endpoint: mean survival time, dose: 400.0 mg/kg/injection, schedule: Q04DX003 (ip), vehicle: saline 91 % of control

NC(CC(=O)O)C(=O)OCc1ccccc1 (stereo not drawn)
inactive: [3] 95 % of control | [6] 92 % of control | [4] 95 % of control | [7] 103 % of control | [8] 95 % of control

CCn1cc(C(=O)O)c(=O)c2cc(OC)c3ccccc3c21
inactive: endpoint: mean survival time, dose: 50.0 mg/kg/injection, schedule: Q04DX002 (ip), vehicle: Klucel (hydroxypropylcellulose) (HPC) 92 % of control | [6] 103 % of control

CCOP(=O)(CN1CCCCC1)OCC
inactive: [9] 104 % of control | [10] 96 % of control | endpoint: mean survival time, dose: 400.0 mg/kg/injection, schedule: Q04DX002 (ip), vehicle: saline 104 % of control

CCCCCCCCNc1ccccc1
inactive: [11] 95 % of control | [12] 106 % of control | [13] 117 % of control

CC(CN)OCc1ccccc1 (stereo not drawn)
inactive: [14] 97 % of control | endpoint: mean survival time, dose: 25.0 mg/kg/injection, schedule: Q01DX009 (ip), vehicle: saline 99 % of control | endpoint: mean survival time, dose: 50.0 mg/kg/injection, schedule: Q01DX009 (ip), vehicle: saline 104 % of control

Cc1ccc(N2SC(Cl)(Cl)N(c3ccc(C)cc3)SC2(Cl)Cl)cc1
inactive: endpoint: mean survival time, dose: 100.0 mg/kg/injection, schedule: Q04DX003 (ip), vehicle: Klucel (hydroxypropylcellulose) (HPC) 94 % of control | endpoint: mean survival time, dose: 200.0 mg/kg/injection, schedule: Q04DX003 (ip), vehicle: Klucel (hydroxypropylcellulose) (HPC) 90 % of control | endpoint: mean survival time, dose: 400.0 mg/kg/injection, schedule: Q04DX003 (ip), vehicle: Klucel (hydroxypropylcellulose) (HPC) 100 % of control

Cc1nc2nccnc2[nH]1
inactive: endpoint: mean survival time, dose: 100.0 mg/kg/injection, schedule: Q01DX009 (ip), vehicle: saline sonified 100 % of control | [11] 96 % of control | endpoint: mean survival time, dose: 200.0 mg/kg/injection, schedule: Q01DX009 (ip), vehicle: saline sonified 92 % of control | [12] 96 % of control | endpoint: mean survival time, dose: 400.0 mg/kg/injection, schedule: Q01DX009 (ip), vehicle: saline sonified 96 % of control | [13] 96 % of control

O=C(Nc1ccc(F)cc1)C(Cl)(Cl)Cl
inactive: [6] 102 % of control | [7] 94 % of control | [8] 94 % of control

c1ccc(N(c2ccccc2)N(c2ccccc2)c2ccccc2)cc1
inactive: [14] 90 % of control | endpoint: mean survival time, dose: 50.0 mg/kg/injection, schedule: Q04DX003 (ip), vehicle: saline 89 % of control | [1] 88 % of control | [2] 88 % of control

CNCC1C=CCCC1 (stereo not drawn)
inactive: [9] 93 % of control | [10] 100 % of control
